Here are results for 14 compounds from patent US20220062258A1, “Heterocyclic derivatives” (Merck Patent GmbH, priority 2019, published 2022).

The structures appear in SMILES notation.

The assay concerns HUVEC primary endothelial cells. Briefly: HUVEC proliferation assay (CyQUANT Direct). Type of assay: cell-based. As to conditions: Homo sapiens, 72 h, 3 days incubation. How it is done: HUVEC Proliferation Assay
Proliferation of HUVEC primary endothelial cells was used as cell-based mechanistical assay.^25 Applying the CyQUANT@ Direct Cell Proliferation Assay (Invitrogen C35011) which is based on a cell-permeant fluorescent DNA-binding dye, DNA content is used as a direct measure for cell number. Pooled HUVEC cells (Promocell C-12203) are cultivated in the medium supplied by Promocell (Cat No C-22020) for maximum 4 passages. For the assay 500 cells/well are seeded into black 384-well culture plates with clear bottom in 70 μl culture medium and incubated for 6 hours at 37° C., 5% CO2. 10 μl prediluted test compounds are added and cells incubated for 3 days at 37° C., 5% CO2 before measurement of DNA content. CyQUANT detection reagent is prepared according to the manufacturers protocol, 20 μl/well added and incubated at 37° C., 5% CO2 for at least 1 h before measurement of fluorescence at Envision multimode reader (Perkin-Elmer, Waltham) with excitation 480 nm and emission 535 nm (bottom read mode). The assay is performed as dose response with 10 compound dilutions. Inhibitory values (IC50) were determined using the program ASSAY ANALYZER® from GeneData (Basel, Switzerland).
As a reminder, the IC50 is the concentration at which inhibition is half-maximal. A high value points to lower potency. Consider `O=C1CCC(N2C(=O)c3ccc(NCCOCCOCCOCCNC(=O)c4cc5cc(N6CC[C@](O)(C(=O)NCc7cc(F)cc(F)c7)C6=O)ccc5[nH]4)cc3C2=O)C(=O)N1` (stereo partly drawn) [Compound A42, 5-[(3S)-3-{[(3,5-difluorophenyl)methyl]carbamoyl}-3-hydroxy-2-oxopyrrolidin-1-yl]-N-(2-{2-[2-(2-{[2-(2,6-dioxopiperidin-3-yl)-1,3-dioxo-2,3-dihydro-1H-isoindol-5-yl]amino}ethoxy)ethoxy]ethoxy}ethyl)-1H-indole-2-carboxamide], for which the IC50 was determined as 4.6 µM.

As to `O=C1CCC(N2C(=O)c3ccc(C#CCOCCOCCOCCOCCNC(=O)c4cc5cc(N6CC[C@](O)(C(=O)NCc7cc(F)cc(F)c7)C6=O)ccc5[nH]4)cc3C2=O)C(=O)N1` (stereo partly drawn) [Compound A43, 5-[(3S)-3-{[(3,5-difluorophenyl)methyl]carbamoyl}-3-hydroxy-2-oxopyrrolidin-1-yl]-N-{15-[2-(2,6-dioxopiperidin-3-yl)-1,3-dioxo-2,3-dihydro-1H-isoindol-5-yl]-3,6,9,12-tetraoxapentadec-14-yn-1-yl}-1H-indole-2-carboxamide], the IC50 turned out to be 7.1 µM.

`O=C1CCC(N2C(=O)c3cccc(NCCOCCOCCOCCOCCNC(=O)c4cc5cc(N6CC[C@](O)(C(=O)NCc7cc(F)cc(F)c7)C6=O)ccc5[nH]4)c3C2=O)C(=O)N1` (stereo partly drawn) [Compound A44, 5-[(3S)-3-{[(3,5-difluorophenyl)methyl]carbamoyl}-3-hydroxy-2-oxopyrrolidin-1-yl]-N-(14-{[2-(2,6-dioxopiperidin-3-yl)-1,3-dioxo-2,3-dihydro-1H-isoindol-4-yl]amino}-3,6,9,12-tetraoxatetradecan-1-yl)-1H-indole-2-carboxamide] registered an IC50 of 7 µM. The IC50 values of the last two compounds are within 1.5-fold of each other.

In the case of `CN(CCOCCOCCOCCOCCOCCN(C)c1cccc2c1C(=O)N(C1CCC(=O)NC1=O)C2=O)C(=O)c1cc2cc(N3CC[C@](O)(C(=O)NCc4cc(F)cc(F)c4)C3=O)ccc2[nH]1` (stereo partly drawn) [Compound A45, 5-[(3S)-3-{[(3,5-difluorophenyl)methyl]carbamoyl}-3-hydroxy-2-oxopyrrolidin-1-yl]-N-{2-[2-(2,6-dioxopiperidin-3-yl)-1,3-dioxo-2,3-dihydro-1H-isoindol-4-yl]-5,8,11,14,17-pentaoxa-2-azanonadecan-19-yl}-N-methyl-1H-indole-2-carboxamide], the IC50 is 0.61 µM.

`O=C1CCC(N2C(=O)c3cccc(C#CCOCCOCCOCCOCCOCCNC(=O)c4cc5cc(N6CC[C@](O)(C(=O)NCc7cc(F)cc(F)c7)C6=O)ccc5[nH]4)c3C2=O)C(=O)N1` (stereo partly drawn) [Compound A46, 5-[(3S)-3-{[(3,5-difluorophenyl)methyl]carbamoyl}-3-hydroxy-2-oxopyrrolidin-1-yl]-N-{18-[2-(2,6-dioxopiperidin-3-yl)-1,3-dioxo-2,3-dihydro-1H-isoindol-4-yl]-3,6,9,12,15-pentaoxaoctadec-17-yn-1-yl}-1H-indole-2-carboxamide] returned an IC50 greater than 30 µM.

As for `CN(CCOCCOCCOCCOCCN(C)c1ccc2c(c1)C(=O)N(C1CCC(=O)NC1=O)C2=O)C(=O)c1cc2cc(N3CC[C@](O)(C(=O)NCc4cc(F)cc(F)c4)C3=O)ccc2[nH]1` (stereo partly drawn) [Compound A47, 5-[(3S)-3-{[(3,5-difluorophenyl)methyl]carbamoyl}-3-hydroxy-2-oxopyrrolidin-1-yl]-N-{2-[2-(2,6-dioxopiperidin-3-yl)-1,3-dioxo-2,3-dihydro-1H-isoindol-5-yl]-5,8,11,14-tetraoxa-2-azahexadecan-16-yl}-N-methyl-1H-indole-2-carboxamide], half-maximal inhibition (IC50) was put at 0.24 µM.

On to `O=C1CCC(N2C(=O)c3ccc(NCCOCCOCCOCCN4CCN(C(=O)c5cc6cc(N7CC[C@](O)(C(=O)NCc8cc(F)cc(F)c8)C7=O)ccc6[nH]5)CC4)cc3C2=O)C(=O)N1` (stereo partly drawn) [Compound A48, (3S)—N-[(3,5-difluorophenyl)methyl]-1-{2-[4-(2-{2-[2-(2-{[2-(2,6-dioxopiperidin-3-yl)-1,3-dioxo-2,3-dihydro-1H-isoindol-5-yl]amino}ethoxy)ethoxy]ethoxy}ethyl)piperazine-1-carbonyl]-1H-indol-5-yl}-3-hydroxy-2-oxopyrrolidine-3-carboxamide], for which the IC50 turned out to be 0.085 µM.

Turning to `O=C1CCC(N2C(=O)c3ccc(NCCOCCOCCN4CCC5(CC4)CCN(C(=O)c4cc6cc(N7CC[C@](O)(C(=O)NCc8cc(F)cc(F)c8)C7=O)ccc6[nH]4)CC5)cc3C2=O)C(=O)N1` (stereo partly drawn) [Compound A49, (3S)—N-[(3,5-difluorophenyl)methyl]-1-[2-(9-{2-[2-(2-{[2-(2,6-dioxopiperidin-3-yl)-1,3-dioxo-2,3-dihydro-1H-isoindol-5-yl]amino}ethoxy)ethoxy]ethyl}-3,9-diazaspiro[5.5]undecane-3-carbonyl)-1H-indol-5-yl]-3-hydroxy-2-oxopyrrolidine-3-carboxamide], the IC50 was found to be 0.051 µM.

`O=C1CCC(N2C(=O)c3ccc(NC(=O)CCCCCCCCCCCCCNC(=O)c4cc5cc(N6CC[C@](O)(C(=O)NCc7cc(F)cc(F)c7)C6=O)ccc5[nH]4)cc3C2=O)C(=O)N1` (stereo partly drawn) [Compound A50, (3S)—N-[(3,5-difluorophenyl)methyl]-1-{2-[(13-{[2-(2,6-dioxopiperidin-3-yl)-1,3-dioxo-2,3-dihydro-1H-isoindol-5-yl]carbamoyl}tridecyl)carbamoyl]-1H-indol-5-yl}-3-hydroxy-2-oxopyrrolidine-3-carboxamide] yielded an IC50 of 0.18 µM.

`O=C1CCC(N2C(=O)c3ccc(NCCCCOCCCCOCCCCNC(=O)c4cc5cc(N6CC[C@](O)(C(=O)NCc7cc(F)cc(F)c7)C6=O)ccc5[nH]4)cc3C2=O)C(=O)N1` (stereo partly drawn) [Compound A51, 5-[(3S)-3-{[(3,5-difluorophenyl)methyl]carbamoyl}-3-hydroxy-2-oxopyrrolidin-1-yl]-N-{4-[4-(4-{[2-(2,6-dioxopiperidin-3-yl)-1,3-dioxo-2,3-dihydro-1H-isoindol-5-yl]amino}butoxy)butoxy]butyl}-1H-indole-2-carboxamide] displayed an IC50 of 0.4 µM.

As for `O=C1CCC(N2C(=O)c3ccc(OCCOCCOCCOCCOCCNC(=O)c4cc5cc(N6CC[C@](O)(C(=O)NCc7cc(F)cc(F)c7)C6=O)ccc5[nH]4)cc3C2=O)C(=O)N1` (stereo partly drawn) [Compound A52, 5-[(3S)-3-{[(3,5-difluorophenyl)methyl]carbamoyl}-3-hydroxy-2-oxopyrrolidin-1-yl]-N-(14-{[2-(2,6-dioxopiperidin-3-yl)-1,3-dioxo-2,3-dihydro-1H-isoindol-5-yl]oxy}-3,6,9,12-tetraoxatetradecan-1-yl)-1H-indole-2-carboxamide], the IC50 was found to be 4.9 µM.

Take `O=C1CCC(N2C(=O)c3ccc(NC(=O)COCCOCCOCCOCCOCCNC(=O)c4cc5cc(N6CC[C@](O)(C(=O)NCc7cc(F)cc(F)c7)C6=O)ccc5[nH]4)cc3C2=O)C(=O)N1` (stereo partly drawn) [Compound A55, (3S)—N-[(3,5-difluorophenyl)methyl]-1-{2-[(1-{[2-(2,6-dioxopiperidin-3-yl)-1,3-dioxo-2,3-dihydro-1H-isoindol-5-yl]carbamoyl}-2,5,8,11,14-pentaoxahexadecan-16-yl)carbamoyl]-1H-indol-5-yl}-3-hydroxy-2-oxopyrrolidine-3-carboxamide]: the IC50 was greater than 30 µM.

Take `O=C1CCC(N2C(=O)c3cccc(NCCOCCOCCOCCOCCN4CCN(C(=O)c5cc6cc(N7CC[C@](O)(C(=O)NCc8cc(F)cc(F)c8)C7=O)ccc6[nH]5)CC4)c3C2=O)C(=O)N1` (stereo partly drawn) [Compound A56, (3S)—N-[(3,5-difluorophenyl)methyl]-1-{2-[4-(14-{[2-(2,6-dioxopiperidin-3-yl)-1,3-dioxo-2,3-dihydro-1H-isoindol-4-yl]amino}-3,6,9,12-tetraoxatetradecan-1-yl)piperazine-1-carbonyl]-1H-indol-5-yl}-3-hydroxy-2-oxopyrrolidine-3-carboxamide]: the IC50 came to 0.12 µM.

`O=C1CCC(N2C(=O)c3cccc(NC(=O)CCCCCCCCCCCCCCCCNC(=O)c4cc5cc(N6CC[C@](O)(C(=O)NCc7cc(F)cc(F)c7)C6=O)ccc5[nH]4)c3C2=O)C(=O)N1` (stereo partly drawn) [Compound A57, (3S)—N-[(3,5-difluorophenyl)methyl]-1-{2-[(16-{[2-(2,6-dioxopiperidin-3-yl)-1,3-dioxo-2,3-dihydro-1H-isoindol-4-yl]carbamoyl}hexadecyl)carbamoyl]-1H-indol-5-yl}-3-hydroxy-2-oxopyrrolidine-3-carboxamide]: the IC50 was greater than 30 µM.
